In brackets after ≈: the same amount, converted by molar mass.
Legend:
Experiment in all cases: ≥ marks a high value that may be exact or a test limit, other limits are often not marked, values filed in µg/mL are converted to µM
Escherichia coli K88 = system: Escherichia coli K88
[1] = system: Salmonella enterica subsp. enterica serovar Pullorum ATCC 7913
[2] = system: Staphylococcus aureus ATCC 43300
[3] = system: Staphylococcus aureus ATCC 25923
[4] = system: Candida albicans CGMCC 2.2086
Escherichia coli K99 = system: Escherichia coli K99
Escherichia coli 078 = system: Escherichia coli 078
[5] = system: Staphylococcus aureus ATCC 29213
[6] = system: Salmonella enterica subsp. enterica serovar Typhimurium ATCC 14028
[7] = system: Pseudomonas aeruginosa ATCC 27853
Escherichia coli UB1005 = system: Escherichia coli UB1005
[8] = system: Candida tropicalis CGMCC 2.1975
[9] = system: Staphylococcus epidermidis ATCC 12228
[10] = system: Salmonella enterica subsp. enterica serovar Typhimurium C77-31
[11] = system: Candida parapsilosis CGMCC 2.3989
[12] = system: Staphylococcus epidermidis ATCC 35984
[13] = system: Staphylococcus aureus ATCC 33591
[14] = system: Klebsiella pneumoniae NCTC 5055
[15] = system: Micrococcus luteus ATCC 49732
[16] = system: Escherichia coli ATCC 15597
[17] = system: Staphylococcus aureus ATCC 6538
[18] = system: Bacillus subtilis ATCC 6633
[19] = system: Salmonella typhimurium DA6192
[20] = system: Cryptococcus neoformans ATCC 32045
[21] = system: Pseudomonas aeruginosa ATCC 10145
[22] = system: Escherichia coli ATCC 2592
[23] = system: Candida albicans ATCC 10231
Escherichia coli BW25113 = system: Escherichia coli BW25113

SMILES	MIC [7]	MIC [13]	MIC [14]	MIC [15]	MIC [16]	MIC [17]	MIC [18]	MIC [19]	MIC [20]	MIC [21]	MIC [22]	MIC [23]	other results
CC[C@H](C)[C@H](NC(=O)[C@H](CCCN=C(N)N)NC(=O)[C@H](C)NC(=O)[C@H](C)N)C(=O)N[C@H](C(=O)N[C@@H](CC(C)C)C(=O)N[C@@H](CCCN=C(N)N)C(=O)N1CCC[C@H]1C(=O)N[C@@H](CCCN=C(N)N)C(=O)N[C@@H](Cc1ccccc1)C(=O)N[C@@H](CCCN=C(N)N)C(N)=O)[C@@H](C)CC [AARIILRPRFR]	> 128 µM	–	–	–	–	–	–	–	–	–	–	–	MIC (Escherichia coli K88): 16 µM (≈ 21.9 µg/mL); MIC [1]: 16 µM (≈ 21.9 µg/mL); MIC [2]: > 128 µM; MIC [3]: > 128 µM; MIC [4]: ≥ 128 µM; MIC (Escherichia coli K99): 16 µM (≈ 21.9 µg/mL); MIC (Escherichia coli 078): 8 µM (≈ 10.9 µg/mL); MIC [5]: > 128 µM; MIC [6]: 16 µM (≈ 21.9 µg/mL); MIC (Escherichia coli UB1005): 8 µM (≈ 10.9 µg/mL); MIC [8]: ≥ 128 µM; MIC [9]: > 128 µM; MIC [10]: 16 µM (≈ 21.9 µg/mL); MIC [11]: ≥ 128 µM
CC[C@H](C)[C@H](N)C(=O)NCC(=O)N[C@@H](CCCCN)C(=O)N[C@@H](Cc1ccccc1)C(=O)N[C@@H](CC(C)C)C(=O)N[C@@H](CCCCN)C(=O)N[C@@H](CCCCN)C(=O)N[C@@H](C)C(=O)N[C@@H](CCCCN)C(=O)N[C@@H](CCCCN)C(=O)N[C@@H](Cc1ccccc1)C(=O)NCC(=O)N[C@@H](CCCCN)C(=O)N[C@@H](C)C(=O)N[C@@H](Cc1ccccc1)C(=O)N[C@H](C(=O)N[C@@H](CCCCN)C(N)=O)C(C)C [IGKFLKKAKKFGKAFVK]	2.92 µM (≈ 5.65 µg/mL)	≥ 264 µM	–	–	–	–	–	–	–	–	–	–	MIC [3]: > 264 µM; MIC [12]: 11.7 µM (≈ 22.6 µg/mL)
CC[C@H](C)[C@H](N)C(=O)N[C@H](C(=O)N[C@@H](CCC(=O)O)C(=O)N[C@H](C(=O)N[C@H](C(=O)N[C@H](C(=O)N[C@H](C(=O)N[C@@H](CC(C)C)C(=O)N[C@@H](CC(C)C)C(=O)N[C@@H](CC(N)=O)C(=O)N[C@@H](CCCN=C(N)N)C(=O)N[C@@H](CC(C)C)C(=O)N[C@H](C(=O)N[C@@H](CC(=O)O)C(=O)N[C@@H](CCCN=C(N)N)C(=O)N[C@@H](CC(C)C)C(=O)N[C@@H](CCC(=O)O)C(=O)N[C@@H](CCCCN)C(=O)O)[C@@H](C)O)[C@@H](C)CC)[C@@H](C)O)[C@@H](C)CC)C(C)C)[C@@H](C)O [ITEVITILLNRLTDRLEK]	> 100 µM	–	≥ 100 µM	≥ 100 µM	≥ 100 µM	> 100 µM	≥ 100 µM	≥ 100 µM	–	–	–	–	–
CC[C@H](C)[C@H](N)C(=O)N[C@H](C(=O)N[C@@H](CCCCN)C(=O)N[C@H](C(=O)N[C@H](C(=O)N[C@@H](C)C(=O)N[C@@H](CCCCN)C(=O)N[C@@H](CC(C)C)C(=O)N[C@@H](CC(C)C)C(=O)N[C@@H](CC(N)=O)C(=O)N[C@@H](CCCN=C(N)N)C(=O)N[C@@H](CC(C)C)C(=O)N[C@H](C(=O)N[C@@H](CCCCN)C(=O)N[C@H](C(=O)N[C@@H](CC(C)C)C(=O)N[C@@H](CO)C(=O)N[C@@H](CCCCN)C(=O)O)[C@@H](C)CC)[C@@H](C)O)[C@@H](C)CC)C(C)C)[C@@H](C)O [ITKVIAKLLNRLTKILSK]	3.1 µM (≈ 6.36 µg/mL)	–	12.5 µM (≈ 25.7 µg/mL)	1.05 µM (≈ 2.16 µg/mL)	3.1 µM (≈ 6.36 µg/mL)	5.2 µM (≈ 10.7 µg/mL)	4.7 µM (≈ 9.65 µg/mL)	16.7 µM (≈ 34.3 µg/mL)	–	–	–	–	–
CC[C@H](C)[C@H](N)C(=O)N[C@H](C(=O)N[C@@H](CCCCN)C(=O)N[C@H](C(=O)N[C@H](C(=O)N[C@H](C(=O)N[C@@H](CCCCN)C(=O)N[C@@H](CC(C)C)C(=O)N[C@@H](CC(C)C)C(=O)N[C@@H](CC(N)=O)C(=O)N[C@@H](CCCN=C(N)N)C(=O)N[C@@H](CC(C)C)C(=O)N[C@@H](CO)C(=O)N[C@@H](CCCCN)C(=O)N[C@H](C(=O)N[C@@H](CC(C)C)C(=O)N[C@@H](CO)C(=O)N[C@@H](CCCCN)C(=O)O)[C@@H](C)CC)[C@@H](C)O)[C@@H](C)CC)C(C)C)[C@@H](C)O [ITKVITKLLNRLSKILSK]	2.08 µM (≈ 4.3 µg/mL)	–	25 µM (≈ 51.7 µg/mL)	1.05 µM (≈ 2.17 µg/mL)	2.8 µM (≈ 5.79 µg/mL)	> 50 µM	4.2 µM (≈ 8.69 µg/mL)	16.7 µM (≈ 34.5 µg/mL)	–	–	–	–	–
C[C@H](NC(=O)[C@H](Cc1ccccc1)NC(=O)[C@H](CCCCN)NC(=O)[C@H](Cc1ccccc1)NC(=O)[C@H](C)NC(=O)[C@H](Cc1ccccc1)NC(=O)[C@H](CCCCN)NC(=O)[C@H](Cc1ccccc1)NC(=O)[C@H](C)NC(=O)[C@H](Cc1ccccc1)NC(=O)[C@H](CCCCN)NC(=O)[C@H](Cc1ccccc1)NC(=O)[C@H](C)NC(=O)[C@H](Cc1ccccc1)NC(=O)[C@H](CCCCN)NC(=O)[C@H](Cc1ccccc1)NC(=O)[C@H](C)NC(=O)[C@H](Cc1ccccc1)NC(=O)[C@H](CCCCN)NC(=O)[C@H](Cc1ccccc1)NC(=O)[C@H](C)NC(=O)[C@H](Cc1ccccc1)NC(=O)[C@H](CCCCN)NC(=O)[C@H](Cc1ccccc1)NC(=O)[C@H](C)NC(=O)[C@H](Cc1ccccc1)NC(=O)[C@@H](N)CCCCN)C(=O)N[C@@H](Cc1ccccc1)C(=O)O [KFAFKFAFKFAFKFAFKFAFKFAFKFAF]	–	≥ 144 µM	–	–	–	–	–	–	≥ 50.9 µM	≥ 72 µM	≥ 288 µM	> 144 µM	–
C[C@H](NC(=O)[C@H](Cc1ccccc1)NC(=O)[C@H](CCCCN)NC(=O)[C@H](CCCCN)NC(=O)[C@H](C)NC(=O)[C@H](Cc1ccccc1)NC(=O)[C@H](CCCCN)NC(=O)[C@H](CCCCN)NC(=O)[C@H](C)NC(=O)[C@H](Cc1ccccc1)NC(=O)[C@H](CCCCN)NC(=O)[C@H](CCCCN)NC(=O)[C@H](C)NC(=O)[C@H](Cc1ccccc1)NC(=O)[C@@H](N)CCCCN)C(=O)N[C@@H](CCCCN)C(=O)O [KFAKKFAKKFAKKFAK]	–	≥ 130 µM	–	–	–	–	–	–	3.62 µM (≈ 6.93 µg/mL)	≥ 65.2 µM	≥ 45.9 µM	55.3 µM (≈ 106 µg/mL)	–
CC(C)C[C@H](NC(=O)[C@H](CCCCN)NC(=O)[C@H](CC(C)C)NC(=O)[C@H](CCCCN)NC(=O)[C@H](CC(C)C)NC(=O)[C@H](CCCCN)NC(=O)[C@H](CC(C)C)NC(=O)[C@H](CCCCN)NC(=O)[C@H](CC(C)C)NC(=O)[C@H](CCCCN)NC(=O)[C@H](CC(C)C)NC(=O)[C@H](CCCCN)NC(=O)[C@H](CC(C)C)NC(=O)[C@H](CCCCN)NC(=O)[C@H](CC(C)C)NC(=O)[C@H](CCCCN)NC(=O)[C@H](CC(C)C)NC(=O)[C@H](CCCCN)NC(=O)[C@H](CC(C)C)NC(=O)[C@H](CCCCN)NC(=O)[C@H](CC(C)C)NC(=O)[C@H](CCCCN)NC(=O)[C@@H](N)CC(C)C)C(=O)N[C@@H](CCCCN)C(=O)O [LKLKLKLKLKLKLKLKLKLKLKLK]	–	≥ 85.8 µM	–	–	–	–	–	–	15.3 µM (≈ 44.5 µg/mL)	15.4 µM (≈ 45 µg/mL)	30.2 µM (≈ 88 µg/mL)	121 µM (≈ 354 µg/mL)	–
CC[C@H](C)[C@H](NC(=O)[C@@H]1CCCN1C(=O)[C@H](CCCN=C(N)N)NC(=O)[C@H](CCCN=C(N)N)NC(=O)[C@H](CCCN=C(N)N)NC(=O)[C@@H](N)CCCN=C(N)N)C(=O)N[C@@H](CCCN=C(N)N)C(=O)N[C@@H](CCCN=C(N)N)C(=O)N[C@@H](CCCN=C(N)N)C(=O)N1CCC[C@H]1C(=O)N[C@H](C(=O)N[C@@H](CCCN=C(N)N)C(=O)N1CCC[C@H]1C(=O)N1CCC[C@H]1C(=O)N[C@@H](Cc1c[nH]c2ccccc12)C(=O)N[C@@H](Cc1ccc(O)cc1)C(=O)N[C@@H](CCCN=C(N)N)C(=O)O)[C@@H](C)CC [RRRRPIRRRPIRPPWYR]	–	–	–	–	–	–	–	–	–	–	–	–	MIC (Escherichia coli BW25113): 16 µM (≈ 38.2 µg/mL)

Reference: DBAASP
